The numbers were not newly measured in patent publication US20200281958A1, “STABLE FORMULATIONS FOR THE ORAL ADMINISTRATION OF AMPHOTERICIN B AND RELATED METHODS” (priority 2015, published 2020), which cites them from elsewhere.

The conditions of series [1]: crystalline.
Series [2] concerns monocytic cell lines and primary macrophages/monocytes.
The test system of series [3] is latently infected T cell lines.

As for `C[C@@H]1[C@H](O)[C@@H](C)/C=C/C=C/C=C/C=C/C=C/C=C/C=C/[C@H](O[C@@H]2O[C@H](C)[C@@H](O)[C@H](N)[C@@H]2O)C[C@@H]2O[C@](O)(C[C@@H](O)C[C@@H](O)[C@H](O)CC[C@@H](O)C[C@@H](O)CC(=O)O[C@H]1C)C[C@H](O)[C@H]2C(=O)O` (relative stereo) [amphotericin B, [1R-(1R*,3S*,5R*,6R*,9R*,11R*,15S*,16R*,17R*,18S*,19E,21E,23E,25E, 27E,29E,31 E,33R*,35S*,36R*,37S)]-33-[(3-amino-3,6-dideoxy-β-D-mannopyranosyl)oxy] 1,3,5,6,9,11, 17,37-octahydroxy-15,16,18-trimethyl-13-oxo-14,39-dioxabicyclo-[33.3.1] nonatriaconta-19,21, 23,25,27,29,3 1-heptaene-36-carboxylic acid], the solubility in water result in series [1] is listed as “insoluble in water”. Further, the “reactivation of HIV-1 replication” value in series [2] is “reactivate HIV-1 replication”. The “direct reactivation of latently infected T cell lines” value in series [3] (T cell lines alone) is “did not directly reactivate”. For the same compound, in series [3] (co-culture with primary macrophages), the “HIV-1 reactivation in T cell lines” value was “partial HIV-1 reactivation”.
